Measurements taken from the supplement of paper PMC10307832.

Experiments:
Assay in all cases: relative viability (nuclei count vs DMSO), 5 days (fraction); higher = more cells survive
Palbociclib + Crizotinib = compound: CC(=O)c1c(C)c2cnc(Nc3ccc(N4CCNCC4)cn3)nc2n(C2CCCC2)c1=O [Palbociclib] + C[C@@H](Oc1cc(-c2cnn(C3CCNCC3)c2)cnc1N)c1c(Cl)ccc(F)c1Cl [Crizotinib] (partner 1 µM)
Summary of the method: (§1)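 After 5 days of treatment, lung cancer cells in 1536-well plates were fixed and stained in a single step (final 0.05% Triton X-100, 1% formaldehyde, 1 ug/ml Hoechst) and their nuclei counted on 4× images. Treatment had been applied by pin tool the day after seeding as one drug alone or as a fixed anchor-drug dose with five library-drug doses (not always all listed) in √10 steps. Relative viability is the nuclei count of treated wells divided by that of vehicle wells, and values are medians of duplicate plates.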

Palbociclib + Linsitinib = compound: CC(=O)c1c(C)c2cnc(Nc3ccc(N4CCNCC4)cn3)nc2n(C2CCCC2)c1=O [Palbociclib] + C[C@]1(O)C[C@@H](c2nc(-c3ccc4ccc(-c5ccccc5)nc4c3)c3c(N)nccn32)C1 [Linsitinib] (partner 1 µM)
Summary of the method: as §1

Palbociclib + Tozasertib = compound: CC(=O)c1c(C)c2cnc(Nc3ccc(N4CCNCC4)cn3)nc2n(C2CCCC2)c1=O [Palbociclib] + Cc1cc(Nc2cc(N3CCN(C)CC3)nc(Sc3ccc(NC(=O)C4CC4)cc3)n2)n[nH]1 [Tozasertib] (partner 0.1 µM)
Summary of the method: as §1

Palbociclib + Dasatinib = compound: CC(=O)c1c(C)c2cnc(Nc3ccc(N4CCNCC4)cn3)nc2n(C2CCCC2)c1=O [Palbociclib] + Cc1nc(Nc2ncc(C(=O)Nc3c(C)cccc3Cl)s2)cc(N2CCN(CCO)CC2)n1 [Dasatinib] (partner 0.075 µM)
Summary of the method: as §1

| Cell Line | relative viability (Palbociclib + Crizotinib; first compound 0.01 µM) | relative viability (Palbociclib + Crizotinib; first compound 0.03162 µM) | relative viability (Palbociclib + Crizotinib; first compound 0.1 µM) | relative viability (Palbociclib + Crizotinib; first compound 0.3162 µM) | relative viability (Palbociclib + Crizotinib; first compound 1 µM) | relative viability (Palbociclib + Linsitinib; first compound 0.01 µM) | relative viability (Palbociclib + Linsitinib; first compound 0.03162 µM) | relative viability (Palbociclib + Linsitinib; first compound 0.1 µM) | relative viability (Palbociclib + Linsitinib; first compound 0.3162 µM) | relative viability (Palbociclib + Linsitinib; first compound 1 µM) | relative viability (Palbociclib + Tozasertib; first compound 0.01 µM) | relative viability (Palbociclib + Tozasertib; first compound 0.03162 µM) | relative viability (Palbociclib + Tozasertib; first compound 0.1 µM) | relative viability (Palbociclib + Tozasertib; first compound 0.3162 µM) | relative viability (Palbociclib + Tozasertib; first compound 1 µM) | relative viability (Palbociclib + Dasatinib; first compound 0.01 µM) | relative viability (Palbociclib + Dasatinib; first compound 0.03162 µM) | relative viability (Palbociclib + Dasatinib; first compound 0.1 µM) | relative viability (Palbociclib + Dasatinib; first compound 0.3162 µM) | relative viability (Palbociclib + Dasatinib; first compound 1 µM) |
| --- | --- | --- | --- | --- | --- | --- | --- | --- | --- | --- | --- | --- | --- | --- | --- | --- | --- | --- | --- | --- |
| NCI-H1666 | 1.09 | 0.895 | 0.632 | 0.552 | 0.621 | 0.868 | 0.751 | 0.634 | 0.619 | 0.37 | 0.642 | 0.585 | 0.539 | 0.47 | 0.458 | 0.874 | 0.644 | 0.683 | 0.583 | 0.477 |
| NCI-H358 | 0.453 | 0.479 | 0.335 | 0.332 | 0.187 | 0.673 | 0.559 | 0.354 | 0.247 | 0.229 | 0.0961 | 0.087 | 0.096 | 0.0791 | 0.0679 | 0.156 | 0.179 | 0.101 | 0.0972 | 0.0795 |
| COR-L 105 | 0.726 | 0.555 | 0.451 | 0.447 | 0.276 | 0.987 | 0.91 | 0.509 | 0.571 | 0.429 | 0.379 | 0.335 | 0.341 | 0.308 | 0.318 | 0.339 | 0.312 | 0.274 | 0.326 | 0.253 |
| NCI-H1651 | 0.895 | 0.864 | 0.869 | 0.808 | 0.79 | 0.972 | 0.913 | 1.01 | 0.933 | 0.698 | 0.749 | 0.603 | 0.665 | 0.617 | 0.685 | 0.394 | 0.366 | 0.352 | 0.385 | 0.308 |
| NCI-H441 | 0.685 | 0.593 | 0.474 | 0.546 | 0.433 | 0.652 | 0.383 | 0.483 | 0.487 | 0.275 | 0.689 | 0.739 | 0.577 | 0.446 | 0.373 | 0.518 | 0.525 | 0.522 | 0.362 | 0.221 |
| H3255 | 1.03 | 0.688 | 0.672 | 0.689 | 0.451 | 1.16 | 0.873 | 0.844 | 0.775 | 0.514 | 0.702 | 0.613 | 0.522 | 0.591 | 0.309 | 0.347 | 0.386 | 0.338 | 0.322 | 0.277 |
| HARA | 1.04 | 0.945 | 0.836 | 0.766 | 0.499 | 1.02 | 0.78 | 0.83 | 0.454 | 0.361 | 0.108 | – | 0.0705 | 0.102 | 0.0769 | 0.27 | – | 0.24 | 0.193 | 0.149 |
| NCI-H647 | 0.947 | 0.809 | 0.759 | 0.735 | 0.462 | 1.2 | 1.01 | 0.89 | 0.941 | 0.712 | 0.272 | 0.286 | 0.266 | 0.465 | 0.435 | 0.177 | 0.142 | 0.143 | 0.163 | 0.139 |
